Data taken from ChEMBL document CHEMBL5241100, “Sulfonamide derivatives as potential anti-cancer agents and their SARs elucidation” (Eur J Med Chem, 2021).

Legend:
Carbonic anhydrase 9 [1] = molecular target: T1, Carbonic anhydrase 9 (Homo sapiens, UniProt Q16790)
HepG2 = test: Antiproliferative activity against human HepG2 cells assessed as inhibition of cell growth by SRB assay; format: functional, cell-based
Carbonic anhydrase 9 [2] = molecular target: T1, Carbonic anhydrase 9; test: Inhibition of carbonic anhydrase 9 (unknown origin) using 4-nitrophenylacetate as substrate by UV/visible spectrophotometer analysis
Ca9-22 = test: Cytotoxicity against human Ca9-22 cells assessed as reduction in cell viability by MTT assay; format: functional
HSC-2 = test: Cytotoxicity against human HSC-2 cells assessed as reduction in cell viability by MTT assay; format: functional
Carbonic anhydrase 1 = Carbonic anhydrase 1 (Homo sapiens, UniProt P00915); test: Inhibition of human CA1
Chain of Carbonic anhydrase 1 (P00915 whole entry): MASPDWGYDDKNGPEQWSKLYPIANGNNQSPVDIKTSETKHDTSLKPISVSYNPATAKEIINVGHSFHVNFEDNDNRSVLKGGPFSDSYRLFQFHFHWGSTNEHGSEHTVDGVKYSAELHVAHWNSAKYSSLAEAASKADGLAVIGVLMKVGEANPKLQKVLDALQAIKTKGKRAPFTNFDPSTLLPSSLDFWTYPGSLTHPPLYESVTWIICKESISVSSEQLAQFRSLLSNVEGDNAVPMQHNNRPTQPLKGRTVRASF

Carbonic anhydrase 2 = Carbonic anhydrase 2 (Homo sapiens, UniProt P00918); test: Inhibition of human CA2
Carbonic anhydrase 9 [3] = molecular target: T1, Carbonic anhydrase 9; test: Inhibition of human CA9
Carbonic anhydrase 12 = Carbonic anhydrase 12 (Homo sapiens, UniProt O43570); test: Inhibition of human CA12
Chain of Carbonic anhydrase 12 (O43570 whole entry): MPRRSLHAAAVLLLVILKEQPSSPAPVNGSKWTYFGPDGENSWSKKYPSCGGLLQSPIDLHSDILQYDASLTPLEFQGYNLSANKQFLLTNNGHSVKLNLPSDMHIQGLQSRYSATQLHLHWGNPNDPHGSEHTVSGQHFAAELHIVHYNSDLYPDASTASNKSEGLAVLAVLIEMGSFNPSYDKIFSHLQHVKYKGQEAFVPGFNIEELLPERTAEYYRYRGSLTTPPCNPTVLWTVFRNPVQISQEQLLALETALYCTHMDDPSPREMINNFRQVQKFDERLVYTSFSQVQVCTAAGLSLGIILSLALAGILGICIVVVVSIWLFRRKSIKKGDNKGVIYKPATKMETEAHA

[4] = molecular target: Apoptosis regulator Bcl-2 (Homo sapiens, UniProt P10415); test: Inhibition of fluorescent-labeled BID-BH3 peptide binding to Bcl-2 (unknown origin) by fluorescence polarization assay
Chain of Apoptosis regulator Bcl-2 (P10415 whole entry): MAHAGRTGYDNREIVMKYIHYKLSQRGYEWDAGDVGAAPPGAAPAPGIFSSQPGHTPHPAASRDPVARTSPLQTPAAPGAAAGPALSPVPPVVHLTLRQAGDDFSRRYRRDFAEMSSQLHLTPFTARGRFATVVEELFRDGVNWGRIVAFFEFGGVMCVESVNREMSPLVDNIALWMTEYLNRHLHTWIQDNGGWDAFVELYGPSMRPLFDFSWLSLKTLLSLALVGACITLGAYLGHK

[5] = molecular target: T2, Induced myeloid leukemia cell differentiation protein Mcl-1 (Homo sapiens, UniProt Q07820); test: Inhibition of fluorescent-labeled BID-BH3 peptide binding to Mcl-1 (unknown origin) by fluorescence polarization assay
T2 sequence (Q07820 whole entry): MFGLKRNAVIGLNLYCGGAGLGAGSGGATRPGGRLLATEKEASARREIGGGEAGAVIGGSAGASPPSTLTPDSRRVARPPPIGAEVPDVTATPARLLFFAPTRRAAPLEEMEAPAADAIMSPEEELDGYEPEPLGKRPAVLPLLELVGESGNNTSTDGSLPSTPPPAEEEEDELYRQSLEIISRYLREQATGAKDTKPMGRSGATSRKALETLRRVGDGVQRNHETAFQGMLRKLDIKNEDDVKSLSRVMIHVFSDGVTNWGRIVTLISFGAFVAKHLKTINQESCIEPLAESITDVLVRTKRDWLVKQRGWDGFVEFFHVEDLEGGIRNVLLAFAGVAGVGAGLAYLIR

Jurkat = format: functional, cell-based; conditions: Homo sapiens, 72 h
RS4-11 = format: functional, cell-based; conditions: Homo sapiens, RS4-11, 72 h
KG-1 = format: functional, cell-based; conditions: Homo sapiens, KG-1, 72 h
MOLT-4 = format: functional, cell-based; conditions: Homo sapiens, MOLT-4, 72 h
HL-60 = format: functional, cell-based; conditions: Homo sapiens, HL-60, 72 h
HCT-116 = test: cells; conditions: Homo sapiens, HCT-116, 48 h
DNA topoisomerase 1 = DNA topoisomerase 1 (Homo sapiens, UniProt P11387); test: Inhibition of topoisomerase 1 (unknown origin) assessed as relaxation of supercoiled […] incubated for 30 mins ethidium bromide staining based UV transilluminator analysis
Chain of DNA topoisomerase 1 (P11387 whole entry): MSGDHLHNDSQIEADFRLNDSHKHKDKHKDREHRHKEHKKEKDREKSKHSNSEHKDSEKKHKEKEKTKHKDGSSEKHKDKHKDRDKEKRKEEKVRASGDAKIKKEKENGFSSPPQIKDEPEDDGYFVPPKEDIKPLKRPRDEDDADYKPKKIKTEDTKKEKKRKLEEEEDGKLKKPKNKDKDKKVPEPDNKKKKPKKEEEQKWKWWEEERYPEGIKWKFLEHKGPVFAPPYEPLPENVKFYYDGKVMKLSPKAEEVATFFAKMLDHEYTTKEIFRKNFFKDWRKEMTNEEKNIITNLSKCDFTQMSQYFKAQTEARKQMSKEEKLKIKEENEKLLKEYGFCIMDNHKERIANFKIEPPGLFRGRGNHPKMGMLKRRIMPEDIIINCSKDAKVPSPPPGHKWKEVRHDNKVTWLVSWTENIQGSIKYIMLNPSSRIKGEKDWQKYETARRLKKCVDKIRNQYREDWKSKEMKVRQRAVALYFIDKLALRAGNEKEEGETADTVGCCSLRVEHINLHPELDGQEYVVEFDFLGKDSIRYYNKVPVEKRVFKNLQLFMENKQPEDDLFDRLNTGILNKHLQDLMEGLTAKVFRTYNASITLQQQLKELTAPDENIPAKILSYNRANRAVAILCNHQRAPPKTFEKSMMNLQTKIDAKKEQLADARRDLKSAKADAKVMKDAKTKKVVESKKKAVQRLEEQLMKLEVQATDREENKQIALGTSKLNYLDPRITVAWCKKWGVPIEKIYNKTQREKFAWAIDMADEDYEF

[6] = Inhibition of topoisomerase 2 (unknown origin) assessed as relaxation of supercoiled kDNA incubated for 30 mins ethidium bromide staining based UV transilluminator analysis; design: species or system Homo sapiens
[7] = Oral bioavailability in mouse; format: ADME, organism-based; conditions: in vivo
[8] = molecular target: T2, Induced myeloid leukemia cell differentiation protein Mcl-1; test: Inhibition of TAMRA-labeled BIM-BH3 peptide binding to 6His-tagged human recombinant Mcl-1 (171 to 327 residues) incubated for 120 mins by fluorescence polarization assay
[9] = molecular target: T2, Induced myeloid leukemia cell differentiation protein Mcl-1; test: Inhibition of fluorescent-labeled BID-BH3 peptide binding to Mcl-1 (unknown origin) incubated for 20 mins by fluorescence polarization assay
Aromatase = Aromatase (Homo sapiens, UniProt P11511); test: Inhibition of human aromatase preincubated with NADPH regenerating system for 10 mins followed by substrate addition by fluorescence based analysis
Chain of Aromatase (P11511 whole entry): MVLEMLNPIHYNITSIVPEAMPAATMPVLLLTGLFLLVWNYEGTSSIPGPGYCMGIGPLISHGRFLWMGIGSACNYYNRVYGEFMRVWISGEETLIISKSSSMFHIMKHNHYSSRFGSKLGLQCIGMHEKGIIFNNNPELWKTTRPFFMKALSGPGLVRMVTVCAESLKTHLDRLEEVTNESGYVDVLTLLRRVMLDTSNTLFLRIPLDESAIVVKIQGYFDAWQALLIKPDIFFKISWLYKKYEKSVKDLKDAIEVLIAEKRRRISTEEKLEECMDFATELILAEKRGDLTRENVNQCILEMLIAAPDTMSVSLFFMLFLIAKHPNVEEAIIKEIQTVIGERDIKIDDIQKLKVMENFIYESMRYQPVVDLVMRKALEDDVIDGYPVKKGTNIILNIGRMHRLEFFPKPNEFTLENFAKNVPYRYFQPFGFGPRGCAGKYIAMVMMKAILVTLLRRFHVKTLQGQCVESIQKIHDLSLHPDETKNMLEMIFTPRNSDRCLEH

[10] = molecular target: T2, Induced myeloid leukemia cell differentiation protein Mcl-1; test: Inhibition of FITC-labeled BID-BH3 peptide binding to Mcl-1 (unknown origin) by fluorescence polarization assay
A-375 = test: Cytotoxicity against human A-375 cells assessed as inhibition of cell growth; format: functional
[11] = Half life in iv dosed mouse; format: ADME, organism-based; conditions: in vivo
OPM-2 = test: Antitumor activity against firefly luciferase-labeled human OPM-2 cells xenografted in mouse assessed as tumor growth inhibition at 20 mg/kg, po administered once daily with carfilzomib at 3 mg/kg, iv administered twice weekly and measured after 19 days; format: functional; conditions: OPM-2, 456 h, time 19 day
MOLM-13 = test: Antitumor activity against human MOLM-13 cells xenografted in mouse assessed as tumor growth inhibition administered with carfilzomib; format: functional

CO[C@@H]1O[C@H](Cn2cc(COc3ccc(S(N)(=O)=O)cc3)nn2)[C@@H](O)[C@H](O)[C@H]1O
IC50 (Carbonic anhydrase 9 [1]): 0.007 µM

CC1CCN(S(=O)(=O)c2ccc(C(=O)c3coc4ccc(O)cc34)cc2)CC1
IC50 (HepG2): 6.2 µM

NS(=O)(=O)c1ccc(O)cc1
IC50 (Carbonic anhydrase 9 [1]): 32 µM

Nc1ccc(S(=O)(=O)Nc2ccsc2-c2nc(-c3ccccc3)no2)cc1
IC50 (Carbonic anhydrase 9 [2]): 0.74 µM

COc1cc(C2CC(c3cccs3)=NN2c2ccc(S(N)(=O)=O)cc2)cc(OC)c1OC (stereo not given)
CC50 (Ca9-22): 6.3 µM | CC50 (HSC-2): 6.3 µM | Ki (Carbonic anhydrase 1): ≥ 0.23 µM | Ki (Carbonic anhydrase 2): 0.089 µM | Ki (Carbonic anhydrase 9 [3]): ≥ 0.044 µM | Ki (Carbonic anhydrase 12): ≥ 0.009 µM

COc1cc(C2CC(c3ccc(F)cc3)=NN2c2ccc(S(N)(=O)=O)cc2)cc(OC)c1OC (stereo not given)
CC50 (Ca9-22): 6.3 µM | CC50 (HSC-2): 6.3 µM | Ki (Carbonic anhydrase 1): ≥ 0.23 µM | Ki (Carbonic anhydrase 2): 0.089 µM | Ki (Carbonic anhydrase 9 [3]): ≥ 0.044 µM | Ki (Carbonic anhydrase 12): ≥ 0.009 µM

O=C(NS(=O)(=O)c1ccc(Cl)c([N+](=O)[O-])c1)[C@@H]1Cc2cc(Br)c(OCc3ccc(-c4ccccc4)cc3)c(Br)c2CC1Cc1ccc([N+](=O)[O-])cc1 (stereo not given in full)
Ki [4]: 0.41 µM | Ki [5]: 0.26 µM | IC50 (Jurkat): 12.8 µM | IC50 (RS4-11): 12.8 µM | IC50 (KG-1): 12.8 µM | IC50 (MOLT-4): 12.8 µM | IC50 (HL-60): 12.8 µM

NS(=O)(=O)c1ccc(CC/N=C2\NC(=O)/C(=C3/C(=O)Nc4ccc(F)cc43)S2)cc1
IC50 (HCT-116): 3.67 µM

CC1CCN(S(=O)(=O)c2ccc(-c3ccno3)cc2)CC1
IC50 (DNA topoisomerase 1): 27.8 µM | IC50 [6]: 33.6 µM

CC[C@@H]1CC/C=C/[C@H](O)[C@@H]2CC[C@H]2CN2C[C@@]3(CCCc4cc(Cl)ccc43)COc3ccc(cc32)C(=O)NS1(=O)=O
bioavailability [7]: 6%

O=C1NSCCOCCCCCCN2C[C@@]3(CCc4cc(Cl)ccc43)COc3ccc1cc32
IC50 [8]: 0.01 µM

O=C(NS(=O)(=O)c1ccc(Cl)c([N+](=O)[O-])c1)c1nn(Cc2ccc(Cl)c(Cl)c2)c2ccccc12
Ki [9]: 0.43 µM

COc1cc2c(cc1OC)CN(S(=O)(=O)c1cccc(-n3cc(COc4ccc5ccccc5c4)nn3)c1)CC2
IC50 (Aromatase): 0.07 µM

CC(C)CN1C[C@H](c2ccc(Cl)cc2Cl)Oc2ccc(C(=O)O)cc21
IC50 [8]: 2.1 µM

Cc1cc(S(=O)(=O)N2CC(C(=O)O)Cc3ccccc32)cc(C)c1Cl (racemic)
Ki [10]: 0.12 µM | GI50 (A-375): 50 µM

Cc1cc2c(C(C)C)c(O)c(O)c(C=O)c2c(O)c1-c1c(C)cc2c(C(C)C)c(O)c(O)c(C=O)c2c1O [GOSSYPOL]
Ki [9]: 0.45 µM

N#Cc1ccc(CC2Cc3c(cc(Br)c(OCc4ccc(-c5ccccc5)cc4)c3Br)C[C@H]2C(=O)NS(=O)(=O)c2ccc(Cl)c([N+](=O)[O-])c2)cc1 (stereo not given in full)
Ki [4]: 0.45 µM | Ki [5]: 0.35 µM | IC50 (Jurkat): 12.8 µM | IC50 (RS4-11): 12.8 µM | IC50 (KG-1): 12.8 µM | IC50 (MOLT-4): 12.8 µM | IC50 (HL-60): 12.8 µM

CO[C@H]1/C=C/C[C@H](C)[C@@H](C)S(=O)(=O)NC(=O)c2ccc3c(c2)N(C[C@@H]2CC[C@H]21)C[C@@]1(CCCc2cc(Cl)ccc21)CO3 [TAPOTOCLAX]
bioavailability [7]: 32% | half-life [11]: 14 h | inhibition in vivo at 20 mg/kg (OPM-2): 99% | inhibition (INH) (MOLM-13): 99%
